According to patent US6645949B1, “Toxicity of boron compounds to certain arthropods” (University of Florida, priority 2000, dated 2003):
“And” between values parts separate entries of the source, which are not always exact repeats. Equal entries are not always repeated.

Test system: Diamond Back Moth (DBM; Plutella xylostella)
Assay: Control of diamond back moth and inhibition of egg deposition, cage test with sugar pads
Assay type: in vivo
Details: 4% in 10% sucrose
Procedure: On day one, six cages (24″ cube) were set up with five virgin DBM females and five virgin DBM males, one cabbage seedling, and one sugar pad (10% sucrose) in each cage. The sugar solution in three cages also contained 4% sodium tetraborate (4 g+96 ml, w:v water). The virgin adult DBM were obtained by isolating colony pupae individually in vials two days prior. The adults emerged one day prior to day one and on day one. They were provided a 10% sugar solution with or without sodium tetraborate, as soon as they emerged, by placing the vials with cloth bottoms on cotton pads.
The cages were placed in environmental rooms where the temperature was 25-26° C. and the day length was 14 hours.
Sugar pads were a single layer of rolled cotton approximately 8 cm square. Each pad was soaked in the appropriate solution, placed in the bottom of a petri dish (95×15 mm), and the excess water was pressed out. Each pad held about 30 ml of solution.
The cabbage seedlings were in Descn. No. 12 plastic pots. The surface of the soil was covered with a thin layer of Plaster of Paris.
On each of days two, three, four, five, and six, the sugar pads and plants were changed (once) between 1:00 p.m. and 5:00 p.m.

[1] = Day 7, cages 1-3, one cage per cell
[2] = Total of Days 2-7, cages 1-3, one cage per cell
[3] = Total of Days 2-7 and of 3 cages
[4] = relative to sugar control, Days 2-7

With `O=BOB(O)OB(O)OB=O` [Sodium tetraborate, sodium tetraborate] the “Percent Hatch, Average” value (Average of the 3 cages, Days 2-7) was 66.4%, the “Number of Eggs, Average” value (Average per cage over Days 2-7) was 354.7 and the “Number of Larvae, Average” value (Average per cage over Days 2-7) was 235.3. For the same compound, the “Number of Dead Females” value (Day 2, Total of 3 cages) was 0, the “Number of Dead Males” value (Day 2, Total of 3 cages) was 0 and the “Number of Eggs” value (Day 2, Total of 3 cages) was 202. For the same compound, the “Number of Larvae” value (Day 2, Total of 3 cages) was 99, the “Percent Hatch” value (Day 2, Total) was 44.8% and the “Number of Dead Females” value (Day 2, cages 1-3, five females per cage) was 0. The “Number of Dead Males” value (Day 2, cages 1-3, five males per cage) was 0, the “Percent Hatch” value (Day 2, cages 1-3, one cage per cell) was 40.9% and 58.2% and 35.4% and the “Number of Dead Females” value (Day 3, Total of 3 cages) was 1. For the same compound, the “Number of Dead Males” value (Day 3, Total of 3 cages) was 0, the “Number of Eggs” value (Day 3, Total of 3 cages) was 499 and the “Number of Larvae” value (Day 3, Total of 3 cages) was 388. The “Percent Hatch” value (Day 3, Total) was 79.9%, the “Number of Dead Males” value (Day 3, cages 1-3, five males per cage) was 0 and the “Percent Hatch” value (Day 3, cages 1-3, one cage per cell) was 73.7% and 74.2% and 91.7%. The “Number of Dead Females” value (Day 4, Total of 3 cages) was 1, the “Number of Dead Males” value (Day 4, Total of 3 cages) was 0 and the “Number of Eggs” value (Day 4, Total of 3 cages) was 185. The “Number of Larvae” value (Day 4, Total of 3 cages) was 113, the “Percent Hatch” value (Day 4, Total) was 57.0% and the “Number of Dead Males” value (Day 4, cages 1-3, five males per cage) was 0. For the same compound, the “Percent Hatch” value (Day 4, cages 1-3, one cage per cell) was 47.5% and 52.2% and 71.3%, the “Number of Dead Females” value (Day 5, Total of 3 cages) was 1 and the “Number of Dead Males” value (Day 5, Total of 3 cages) was 2. For the same compound, the “Number of Eggs” value (Day 5, Total of 3 cages) was 119, the “Number of Larvae” value (Day 5, Total of 3 cages) was 70 and the “Percent Hatch” value (Day 5, Total) was 54.3%. For the same compound, the “Number of Dead Females” value (Day 6, Total of 3 cages) was 3, the “Number of Dead Males” value (Day 6, Total of 3 cages) was 4 and the “Number of Eggs” value (Day 6, Total of 3 cages) was 58. For the same compound, the “Number of Larvae” value (Day 6, Total of 3 cages) was 36, the “Percent Hatch” value (Day 6, Total) was 63.3% and the “Number of Dead Females” value (Day 6, cages 1-3, five females per cage) was 1. The “Number of Dead Females” value (Day 7, Total of 3 cages) was 6, the “Number of Dead Males” value (Day 7, Total of 3 cages) was 4 and the “Number of Eggs” value (Day 7, Total of 3 cages) was 1. The “Number of Larvae” value (Day 7, Total of 3 cages) was 0, the “Number of Live Females” value (Day 7, Total of 3 cages) was 2 and the “Number of Live Males” value (Day 7, Total of 3 cages) was 2. For the same compound, the “Percent Hatch” value (Day 7, Total) was 0.0%, the “Number of Dead Males” value (Day 7, cages 1-3, five males per cage) was 2 and 1 and the “Number of Larvae” value [1] was 0. The “Percent Hatch” value [1] was 0.0%, the “Percent Hatch, Total” value (Days 2-7 together, cages 1-3, one cage per cell) was 60.9% and 65.5% and 72.9% and the “Number of Eggs, Total” value [2] was 419 and 261 and 384. The “Number of Larvae, Total” value [2] was 255 and 171 and 280, the “Number of Eggs, Total” value [3] was 1064 and the “Number of Larvae, Total” value [3] was 706. For the same compound, the “Number of Eggs, % of sugar” value [4] was 57.1% and the “Number of Larvae, % of sugar” value [4] was 64.2%.
